Reference: US10669289B2, “Boronic acid derivatives” (MERCK PATENT GMBH, priority 2014, dated 2020)

Columns and labels:
[1] = biological target: human immuno proteasome (LMP7) (Homo sapiens (Human), UniProt P28062); assay: Determination of LMP7 activity (fluorescence intensity assay, Suc-LLVY-AMC); type: biochemical
Method: Determination of LMP7 Activity:
Measurement of LMP7 inhibition is performed in 384 well format based on fluorescence intensity assay.
(§1) Purified human immuno proteasome (0.25 nM) and serial diluted compounds in DMSO (range of concentrations from 30 μM to 15 pM) or controls are incubated for 20 minutes or 120 minutes (long incubation) at 25° C. in assay buffer containing 50 mM Tris pH 7.4, 0.03% SDS, 1 mM EDTA and 1% DMSO. The reaction is initiated by the addition of the fluorogenic peptide substrate, Suc-LLVY-AMC (Bachem 1-1395), at a concentration of 40 μM. After 60 minutes of incubation at 37° C., fluorescence intensity is measured at λex=350 nm and λem=450 nm with a fluorescence reader (Perkin Elmer Envision reader or equivalent).
(§2) Unless indicated otherwise the results are obtained after incubation for 20 minutes.

[2] = biological target: human constitutive proteasome (Beta5) (Homo sapiens (Human), UniProt P28074); assay: Determination of Beta5 activity (fluorescence intensity assay, Suc-LLVY-AMC); type: biochemical
Method: Determination of Beta5 Activity:
Measurement of Beta5 inhibition is performed in 384 well format based on fluorescence intensity assay.
as §1, with “constitutive” for “immuno”, “(1.25” for “(0.25”
as §2

[3] = LMP7 versus Beta5, incubation for 20 minutes
[4] = LMP7 versus Beta5, long incubation (120 min)

SMILES | Selectivity LMP7 vs Beta5 [1, 3] | IC50 ([1]; incubation for 20 minutes) [nM] | IC50 ([2]; incubation for 20 minutes) [nM] | Selectivity LMP7 vs Beta5 [1, 4] | IC50 ([1]; long incubation (120 min)) [nM] | IC50 ([2]; long incubation (120 min)) [nM]
C=CC(=O)N(CC(=O)N[C@@H](Cc1ccc(C)cc1C)B(O)O)C(C)C [Compound No. 27, [(1R)-2-(2,4-dimethylphenyl)-1-[[2-[isopropyl(prop-2-enoyl)amino]-acetyl]amino]ethyl]boronic Acid] | +++ (70 ≤ 100) | 50 to 500 | > 5000 |  |  | 
C=C(C)C(=O)N(CC)CC(=O)N[C@@H](Cc1ccccc1)B(O)O [Compound No. 28, [(1R)-1-[[2-[ethyl(2-methylprop-2-enoyl)amino]acetyl]amino]-2-phenyl-ethyl]boronic Acid] | + (Selectivity < 50) | 500 to 5000 | > 5000 |  |  | 
C=CC(=O)N(CC)CC(=O)N[C@@H](Cc1ccc(F)cc1)B(O)O [Compound No. 30, [(1R)-1-[[2-[ethyl(prop-2-enoyl)amino]acetyl]amino]-2-(4-fluorophenyl)ethyl]boronic Acid] | +++ (70 ≤ 100) | 50 to 500 | > 5000 |  |  | 
C=CC(=O)N(CC)CC(=O)N[C@@H](Cc1ccc(C)cc1)B(O)O [Compound No. 31, [(1R)-1-[[2-[ethyl(prop-2-enoyl)amino]acetyl]amino]-2-(p-tolyl)ethyl]-boronic Acid] | ++++ (100 ≤ Selectivity < 150) | < 50 | 500 to 5000 |  |  | 
C=C(C)C(=O)N(CC)CC(=O)N[C@@H](Cc1ccc(C)cc1C)B(O)O [Compound No. 32, [(1R)-2-(2,4-dimethylphenyl)-1-[[2-[ethyl(2-methylprop-2-enoyl)-amino]acetyl]amino]ethyl]boronic Acid] | +++ (70 ≤ 100) | 50 to 500 | > 5000 |  |  | 
C=CC(=O)N(C)CC(=O)N[C@@H](Cc1ccc(C)cc1C)B(O)O [Compound No. 33, [(1R)-2-(2,4-dimethylphenyl)-1-[[2-[methyl(prop-2-enoyl)amino]-acetyl]amino]ethyl]boronic Acid] | +++++ (Selectivity ≥ 150) | < 50 | > 5000 |  |  | 
C=CC(=O)N(CC)CC(=O)N[C@@H](Cc1ccc(C)cc1C)B(O)O [Compound No. 34, [(1R)-2-(2,4-dimethylphenyl)-1-[[2-[ethyl(prop-2-enoyl)amino]acetyl]-amino]ethyl]boronic Acid] | ++++ (100 ≤ Selectivity < 150) | 50 to 500 | > 5000 |  |  | 
C=CC(=O)N(CC(=O)N[C@@H](Cc1ccccc1)B(O)O)C(C)C [Compound No. 35, [(1R)-1-[[2-[isopropyl(prop-2-enoyl)amino]acetyl]amino]-2-phenyl-ethyl]boronic Acid] | + (Selectivity < 50) | 50 to 500 | > 5000 |  |  | 
C=CC(=O)N(CC)CC(=O)N[C@@H](Cc1coc2ccccc12)B(O)O [Compound No. 36, [(1R)-2-(benzofuran-3-yl)-1-[[2-[ethyl(prop-2-enoyl)amino]acetyl]-amino]ethyl]boronic Acid] | +++ (70 ≤ 100) | < 50 | 50 to 500 |  |  | 
C=CC(=O)N(CC)CC(=O)N[C@@H](Cc1ccccc1)B(O)O [Compound No. 37, [(1R)-1-[[2-[ethyl(prop-2-enoyl)amino]acetyl]amino]-2-phenyl-ethyl]boronic Acid] | +++ (70 ≤ 100) | 50 to 500 | > 5000 |  |  | 
C=CC(=O)N1CCCC[C@@H]1C(=O)N[C@@H](Cc1ccc(C)cc1C)B(O)O [Compound No. 38, [(1R)-2-(2,4-dimethylphenyl)-1-[[(2R)-1-prop-2-enoylpiperidine-2-carbonyl]amino]ethyl]boronic Acid] |  |  |  | ++++ (100 ≤ Selectivity < 150) | 50 to 500 | > 5000
C=CC(=O)N1CCCC[C@H]1C(=O)N[C@@H](Cc1ccc(C)cc1C)B(O)O [Compound No. 39, [(1R)-2-(2,4-dimethylphenyl)-1-[[(2S)-1-prop-2-enoylpiperidine-2-carbonyl]amino]ethyl]boronic Acid] |  |  |  | ++ (50 ≤ Selectivity < 70) | 500 to 5000 | > 5000
C=CC(=O)N(CC)CC(=O)N[C@@H](Cc1ccc(Cl)cc1Cl)B(O)O [Compound No. 40, [(1R)-2-(2,4-dichlorophenyl)-1-[[2-[ethyl(prop-2-enoyl)amino]acetyl]amino]ethyl]boronic Acid] |  |  |  | +++++ (Selectivity ≥ 150) | 50 to 500 | > 5000
C=CC(=O)N(CC(=O)N[C@@H](Cc1ccc(C)cc1C)B(O)O)c1cccc(F)c1F [Compound No. 41, [(1R)-1-[[2-(2,3-difluoro-N-prop-2-enoyl-anilino)acetyl]amino]-2-(2,4-dimethylphenyl)ethyl]boronic Acid] |  |  |  | +++++ (Selectivity ≥ 150) | < 50 | > 5000
C=CC(=O)N(CC(=O)N[C@@H](Cc1ccc(C)cc1C)B(O)O)c1cc(F)ccc1F [Compound No. 42, [(1R)-1-[[2-(2,5-difluoro-N-prop-2-enoyl-anilino)acetyl]amino]-2-(2,4-dimethylphenyl)ethyl]boronic Acid] |  |  |  | +++++ (Selectivity ≥ 150) | < 50 | > 5000
C=CC(=O)N(CC(=O)N[C@@H](Cc1ccc(C)cc1C)B(O)O)c1c(F)cccc1F [Compound No. 43, [(1R)-1-[[2-(2,6-difluoro-N-prop-2-enoyl-anilino)acetyl]amino]-2-(2,4-dimethylphenyl)ethyl]boronic Acid] |  |  |  | +++++ (Selectivity ≥ 150) | < 50 | > 5000
C=CC(=O)N(CC(=O)N[C@@H](Cc1ccccc1)B(O)O)c1ccccc1F [Compound No. 44, [(1R)-1-[[2-(2-fluoro-N-prop-2-enoyl-anilino)acetyl]amino]-2-phenyl-ethyl]boronic Acid] |  |  |  | +++++ (Selectivity ≥ 150) | < 50 | > 5000
C=CC(=O)N(c1ccccc1)[C@H](C)C(=O)N[C@@H](Cc1ccc(C)cc1C)B(O)O [Compound No. 45, [(1R)-2-(2,4-dimethylphenyl)-1-[[(2R)-2-(N-prop-2-enoylanilino)propanoyl]amino]ethyl]boronic Acid] |  |  |  | +++++ (Selectivity ≥ 150) | 50 to 500 | > 5000
C=CC(=O)N(c1ccccc1)[C@@H](C)C(=O)N[C@@H](Cc1ccc(C)cc1C)B(O)O [Compound No. 46, [(1R)-2-(2,4-dimethylphenyl)-1-[[(2S)-2-(N-prop-2-enoylanilino)propanoyl]amino]ethyl]boronic Acid] | ++ (50 ≤ Selectivity < 70) | 500 to 5000 | > 5000 |  |  | 
C=CC(=O)N(c1ccccc1)[C@H](C)C(=O)N[C@@H](Cc1ccc(C)c(C)c1)B(O)O [Compound No. 47, [(1R)-2-(3,4-dimethylphenyl)-1-[[(2R)-2-(N-prop-2-enoylanilino)propanoyl]amino]ethyl]boronic Acid] |  |  |  | +++++ (Selectivity ≥ 150) | 50 to 500 | > 5000
C=CC(=O)N(c1ccccc1)[C@@H](C)C(=O)N[C@@H](Cc1ccc(C)c(C)c1)B(O)O [Compound No. 48, [(1R)-2-(3,4-dimethylphenyl)-1-[[(2S)-2-(N-prop-2-enoylanilino)propanoyl]amino]ethyl]boronic Acid] | ++ (50 ≤ Selectivity < 70) | 500 to 5000 | > 5000 |  |  | 
C=CC(=O)N(C)[C@@H](C)C(=O)N[C@@H](Cc1ccc(C)cc1C)B(O)O [Compound No. 49, [(1R)-2-(2,4-dimethylphenyl)-1-[[(2S)-2-[methyl(prop-2-enoyl)amino]propanoyl]amino]ethyl]boronic Acid] |  |  |  | ++++ (100 ≤ Selectivity < 150) | 50 to 500 | > 5000
CCN(CC(=O)N[C@@H](Cc1ccc(C)cc1C)B(O)O)C(=O)/C=C/C(=O)OC [Compound No. 50, [(1R)-2-(2,4-dimethylphenyl)-1-[[2-[ethyl-[(E)-4-methoxy-4-oxo-but-2-enoyl]amino]acetyl]amino]ethyl]boronic Acid] |  |  |  | +++++ (Selectivity ≥ 150) | < 50 | > 5000
C=CC(=O)N1CCCC[C@@H]1C(=O)N[C@@H](Cc1ccc(Cl)cc1Cl)B(O)O [Compound No. 51, [(1R)-2-(2,4-dichlorophenyl)-1-[[(2R)-1-prop-2-enoylpiperidine-2-carbonyl]amino]ethyl]boronic Acid] |  |  |  | ++++ (100 ≤ Selectivity < 150) | 50 to 500 | > 5000
C=CC(=O)N(C)[C@H](C)C(=O)N[C@@H](Cc1ccc(C)cc1C)B(O)O [Compound No. 52, [(1R)-2-(2,4-dimethylphenyl)-1-[[(2R)-2-[methyl(prop-2-enoyl)amino]propanoyl]amino]ethyl]boronic Acid] |  |  |  | ++ (50 ≤ Selectivity < 70) | 500 to 5000 | > 5000
